In patent US20150148538A1, “USE OF AN H4 AGONIST MOLECULE TO TREAT ACUTE LEUKEMIA” (priority 2013, published 2015):

Tests used:
Pre T line = test: Proliferation inhibition of Pre T lymphoid line (cell count or XTT test); assay type: cell-based
Procedure: (§1) The lymphoid line is represented by the following clonal malignant cells: the Pre T line and the Pro B line. The cells are cultured using the same technique as the myeloid lines.
(§2) The reading is done on the third day, and the number of cells in the proliferation phase is measured. The ratio between the cells in the proliferation phase and the cells that are not proliferating yields the percentage of cells in inhibition. Normally, all of the cells are in the proliferation phase when the cells are stimulated with GMCSF.
(§3) The results are expressed in proliferation inhibition % (n=3): The result is the Mean of the three tests done.
(§4) The results are expressed in estimated proliferation inhibition % by cell count or by rock proliferation test. This test measures the incorporation of a dye when the cells are proliferating (XTT test).

histamine H4 receptor [1] = molecular target: T1, histamine H4 receptor (Homo sapiens, UniProt Q9H3N8); conditions: unit not given; cited from earlier work
Pro B line = test: Proliferation inhibition of Pro B lymphoid line (cell count or XTT test); assay type: cell-based
Procedure: as §1, §2, §3, §4

TF1 line = test: Proliferation inhibition of TF1 myeloid leukemia line (cell count or XTT test); assay type: cell-based
Procedure: (§5) The myeloid line is represented by the following clonal malignant cells: the HL60 line and the TF1 line. TF1 constitutively expresses the histamine H4 receptor and proliferates in response to GMCSF.
(§6) Tritoqualine, a mixture of 2 enantiomers, has been tested on this line between 10^−5 and 10^−7M with or without CB 10^−5M addition.
(§7) The TF1 line and the HL60 line are represented by inoculates of 100,000 cells in one milliliter incubated for 3 days with GM-CSF (10 ng/ml).
(§8) The reading is done on the third day and the number of cells in the proliferation phase is measured. […] Normally, all of the cells are in the proliferation phase when the cells are stimulated with GMCSF.
(§9) The results are expressed in proliferation inhibition % (n=3): The result is the Mean of the three tests performed.
as §4

[2] = white powder; breaks down into Cotarnine and phthalic acid; cited from earlier work
Solubility in water = assay type: physicochemical; conditions: including with fetal calf serum added
Excerpt: We dilute the tritoqualine in dimethyl sulfoxide, also called DMSO.

HL60 line = test: Proliferation inhibition of HL60 myeloid leukemia line (cell count or XTT test); assay type: cell-based; conditions: tritoqualine at 10^-5; 3 days with GM-CSF 10 ng/ml; mean of n=3
Procedure: as §5, §6, §7, §8, §9, §4

histamine H4 receptor [3] = molecular target: T1, histamine H4 receptor; test: Reversal of tritoqualine effect by a histamine H4 antagonist; assay type: cell-based; conditions: with a histamine H4 antagonist; myeloid cells
Excerpt: This appears to indicate that the H4 agonist effect is indeed responsible for the activity of tritoqualine.

solubility in water (Solubility in water)	effect of a histamine H4 antagonist on the effect of tritoqualine (histamine H4 receptor [3])	Structure (SMILES)	blocking of proliferation of Pre T cells (in words) (Pre T line)	affinity (histamine H4 agonist) (histamine H4 receptor [1])	blocking of proliferation of Pro B cells (in words) (Pro B line)	inhibition of proliferation of the myeloid line (in words) (TF1 line; 'this line' (myeloid, TF1), dose of 10^-5M)	sensitivity to light [2]	proliferation inhibition % of HL60 cells (HL60 line) [%]	proliferation inhibition % of Pre T cells (Pre T line; at 10^-5, reading on third day, mean of n=3)	proliferation inhibition % of Pro B cells (Pro B line; at 10^-5, reading on third day, mean of n=3, equal to the control without product) [%]	proliferation inhibition % of TF1 cells (TF1 line; tritoqualine at 10^-5, 3 days with GM-CSF 10 ng/ml, mean of n=3)
–	–	NC(=NCc1ccc(Cl)cc1)SCCCc1cnc[nH]1 [Clobenpropit]	block the proliferation	10^−9	not	inhibits the proliferation	–	–	–	–	–
low solubility	inhibits the effect of tritoqualine	CCOc1c(N)c2c(c(OCC)c1OCC)C(C1c3c(cc4c(c3OC)OCO4)CCN1C)OC2=O (centres unmarked) [tritoqualine, (AMINO-7 TRIETHOXY-4,5,6 OXO-1 DIHYDRO-1,3 ISOBENZOFURANNYL-3)-1 METHOXY-8 METHYL-2METHYLENEDIOXY-6,7 TETRAHYDRO-,2,3,4 ISOQUINOLEINE]	block the proliferation	10^−6	not	–	very sensitive to light	~68	approximately 45%	15	approximately 58%
